Source: ChEMBL document CHEMBL1201862, “PubChem BioAssay data set” (2004)
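Cells were grown in 96-well plates and exposed to each compound for 48 hours at five concentrations; endpoints were interpolated linearly between bracketing concentrations, or set to the highest concentration if not reached. Here, GI50 denotes the concentration required for 50% inhibition of growth.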 Activity calls are given as the source filed them. Cut-off read from the data, not from the text of the source: active = GI50 up to about 1.1 µM and inactive = higher.

Key:
Assay in all cases: NCI anticancer screen, dose series, 48 h
SN12C = test system: SN12C
A549 = test system: A549
HL-60 = test system: HL-60
CCRF-CEM = test system: CCRF-CEM
SK-MEL-28 = test system: SK-MEL-28
HT-29 = test system: HT-29
CAKI-1 = test system: CAKI-1
SK-OV-3 = test system: SK-OV-3
KM12 = test system: KM12
HOP-92 = test system: HOP-92
SF-539 = test system: SF-539
UACC-257 = test system: UACC-257
Malme-3M = test system: Malme-3M
SR = test system: SR
SNB-19 = test system: SNB-19
786-0 = test system: 786-0
U-251 = test system: U-251
SK-MEL-5 = test system: SK-MEL-5
NCI-H226 = test system: NCI-H226

Measured: GI50

CCOC(=O)[N-]c1ccc(S(=O)(=O)[O+](C)CCl)cc1.CCOC(=O)[N-]c1ccc(S(=O)(=O)[O+](C)CCl)cc1.NC(=O)N=O.NC(=O)OCCCl
inactive: SN12C > 100 µM | A549 > 100 µM | HL-60 > 100 µM | CCRF-CEM > 100 µM | SK-MEL-28 > 100 µM | HT-29 > 100 µM | CAKI-1 > 100 µM | SK-OV-3 > 100 µM | KM12 > 100 µM | HOP-92 > 100 µM | SF-539 > 100 µM | UACC-257 > 100 µM | Malme-3M > 100 µM | SR > 100 µM | SNB-19 > 100 µM | 786-0 > 100 µM | U-251 > 100 µM

CC1=C(C(=O)NCc2ccccc2)C(c2ccc(N(C)C)cc2)C(C(=O)NCc2ccccc2)=C(C)N1
inactive: SK-MEL-5 > 100 µM | SN12C > 100 µM | A549 > 100 µM | HL-60 > 100 µM | CCRF-CEM > 100 µM | SK-MEL-28 > 100 µM | HT-29 > 100 µM | CAKI-1 > 100 µM | NCI-H226 > 100 µM | SK-OV-3 > 100 µM | KM12 > 100 µM | HOP-92 > 100 µM | SF-539 > 100 µM | UACC-257 > 100 µM | Malme-3M > 100 µM | SNB-19 > 100 µM | 786-0 > 100 µM | U-251 > 100 µM

O=c1c2cc([N+](=O)[O-])ccc2sc2ccsc12
inactive: SK-MEL-5 > 100 µM | SN12C > 100 µM | A549 > 100 µM | HL-60 > 100 µM | CCRF-CEM > 100 µM | SK-MEL-28 > 100 µM | HT-29 > 100 µM | NCI-H226 > 100 µM | SK-OV-3 > 100 µM | KM12 > 100 µM | HOP-92 > 100 µM | SF-539 > 100 µM | UACC-257 > 100 µM | Malme-3M > 100 µM | SNB-19 > 100 µM | 786-0 > 100 µM | U-251 > 100 µM

CC(=O)c1ccc(OCC(O)CO)cc1 (centres undefined)
inactive: SK-MEL-5 > 100 µM | SN12C > 100 µM | A549 94.2 µM | HL-60 > 100 µM | CCRF-CEM > 100 µM | SK-MEL-28 > 100 µM | HT-29 61.4 µM | CAKI-1 > 100 µM | NCI-H226 > 100 µM | SK-OV-3 > 100 µM | KM12 > 100 µM | HOP-92 > 100 µM | SF-539 > 100 µM | UACC-257 > 100 µM | Malme-3M > 100 µM | SNB-19 > 100 µM | 786-0 25.6 µM | U-251 49.8 µM

Nc1ccc(N)c2c1C(=O)c1ccccc1C2=O
inactive: SK-MEL-5 15.8 µM | SN12C 13.2 µM | A549 24.4 µM | CCRF-CEM 32.1 µM | SK-MEL-28 > 100 µM | HT-29 57.9 µM | CAKI-1 4.57 µM | NCI-H226 > 100 µM | SK-OV-3 2.49 µM | KM12 4.54 µM | HOP-92 36.2 µM | SF-539 34.4 µM | UACC-257 > 100 µM | Malme-3M 24 µM | SNB-19 > 100 µM | 786-0 78.7 µM | U-251 17.3 µM

Oc1cc(-c2ccc(Oc3ccccc3)cc2)nc2cc3c(cc12)OCO3
inactive: SK-MEL-5 > 100 µM | SN12C > 100 µM | A549 > 100 µM | HL-60 > 100 µM | CCRF-CEM > 100 µM | SK-MEL-28 > 100 µM | HT-29 > 100 µM | NCI-H226 27.5 µM | SF-539 > 100 µM | UACC-257 > 100 µM | Malme-3M > 100 µM | SR > 100 µM | SNB-19 > 100 µM | 786-0 > 100 µM | U-251 > 100 µM

O=C1c2ccccc2C2(O)NC(=S)N(c3ccccc3)C12O (centres undefined)
inactive: A549 > 100 µM | HL-60 > 100 µM | CCRF-CEM > 100 µM | SK-MEL-28 > 100 µM | HT-29 > 100 µM | CAKI-1 > 100 µM | SK-OV-3 > 100 µM | KM12 > 100 µM | HOP-92 > 100 µM | SF-539 > 100 µM | UACC-257 > 100 µM | Malme-3M > 100 µM | SR > 100 µM | SNB-19 > 100 µM | 786-0 > 100 µM | U-251 > 100 µM

O=NN(CCF)C(=O)NC1CC2CCC1C2 (centres undefined)
inactive: SK-MEL-5 > 100 µM | SN12C > 100 µM | A549 > 100 µM | HL-60 38.7 µM | CCRF-CEM 38.3 µM | SK-MEL-28 > 100 µM | HT-29 > 100 µM | CAKI-1 > 100 µM | SK-OV-3 > 100 µM | KM12 > 100 µM | HOP-92 > 100 µM | SF-539 > 100 µM | UACC-257 > 100 µM | Malme-3M > 100 µM | SNB-19 > 100 µM | U-251 > 100 µM

Cc1cc(Cl)ccc1NC(=O)CCCC(=O)C1CCCC1=O (centres undefined)
inactive: SK-MEL-5 > 100 µM | SN12C > 100 µM | A549 > 100 µM | HL-60 > 100 µM | CCRF-CEM > 100 µM | HT-29 > 100 µM | CAKI-1 > 100 µM | NCI-H226 > 100 µM | SK-OV-3 > 100 µM | KM12 > 100 µM | SF-539 > 100 µM | UACC-257 > 100 µM | Malme-3M > 100 µM | SNB-19 > 100 µM | 786-0 > 100 µM | U-251 > 100 µM

Cn1c(=O)oc2cc(C3CCC(=O)N3Cc3ccc(Cl)cc3)ccc21 (centres undefined)
inactive: SK-MEL-5 > 100 µM | SN12C > 100 µM | A549 > 100 µM | HL-60 > 100 µM | CCRF-CEM > 100 µM | SK-MEL-28 > 100 µM | HT-29 > 100 µM | CAKI-1 > 100 µM | NCI-H226 > 100 µM | SK-OV-3 93.3 µM | KM12 > 100 µM | SF-539 > 100 µM | UACC-257 > 100 µM | Malme-3M > 100 µM | SR > 100 µM | SNB-19 > 100 µM | 786-0 > 100 µM | U-251 > 100 µM

NCc1ccccc1C1CSCSC1
inactive: SK-MEL-5 > 100 µM | SN12C > 100 µM | A549 > 100 µM | HL-60 > 100 µM | CCRF-CEM > 100 µM | SK-MEL-28 > 100 µM | HT-29 > 100 µM | NCI-H226 > 100 µM | SK-OV-3 > 100 µM | KM12 > 100 µM | SF-539 > 100 µM | UACC-257 > 100 µM | Malme-3M > 100 µM | U-251 > 100 µM

Cc1cccc(C)c1NC(=O)CCc1nnc(S)[nH]1
inactive: SN12C > 100 µM | A549 > 100 µM | HL-60 > 100 µM | CCRF-CEM > 100 µM | SK-MEL-28 > 100 µM | CAKI-1 > 100 µM | NCI-H226 > 100 µM | SK-OV-3 > 100 µM | HOP-92 > 100 µM | SF-539 > 100 µM | Malme-3M > 100 µM | SNB-19 > 100 µM | 786-0 > 100 µM | U-251 > 100 µM

Cc1nc2c(n1-c1ccccc1)C(=O)c1ccccc1C2=O
inactive: SK-MEL-5 25.8 µM | SN12C 38.2 µM | A549 38.5 µM | HL-60 14.7 µM | CCRF-CEM 32.1 µM | SK-MEL-28 96.2 µM | HT-29 32.7 µM | CAKI-1 70.8 µM | NCI-H226 58.1 µM | SK-OV-3 > 100 µM | KM12 50.2 µM | SF-539 41.7 µM | UACC-257 22.4 µM | Malme-3M 11.3 µM | SR 37.1 µM | SNB-19 50.2 µM | 786-0 76.7 µM | U-251 34 µM

O=C1Sc2ccccc2C(=O)N2CCSC12 (centres undefined)
inactive: SK-MEL-5 > 100 µM | SN12C > 100 µM | HL-60 82.6 µM | CCRF-CEM > 100 µM | SK-MEL-28 > 100 µM | SK-OV-3 > 100 µM | KM12 > 100 µM | HOP-92 > 100 µM | UACC-257 > 100 µM | Malme-3M > 100 µM | SR > 100 µM | SNB-19 > 100 µM | U-251 > 100 µM

Cc1ccc(NC(=O)C2C(=O)N(c3ccc(C)c(C)c3)C(=O)/C2=N\NC(N)=O)cc1C (centres undefined)
inactive: SK-MEL-5 > 100 µM | SN12C 77.3 µM | A549 52.8 µM | HL-60 81.5 µM | CCRF-CEM 73.8 µM | SK-MEL-28 > 100 µM | HT-29 > 100 µM | CAKI-1 > 100 µM | NCI-H226 > 100 µM | SK-OV-3 > 100 µM | KM12 > 100 µM | HOP-92 63.5 µM | SF-539 > 100 µM | UACC-257 > 100 µM | Malme-3M > 100 µM | SNB-19 > 100 µM | 786-0 > 100 µM | U-251 57.3 µM

Cc1ccc(C)c(NC(=O)C(=O)CC(=O)C2CCOC2=O)c1 (centres undefined)
inactive: SK-MEL-5 > 100 µM | SN12C > 100 µM | A549 > 100 µM | HL-60 > 100 µM | CCRF-CEM > 100 µM | SK-MEL-28 28.5 µM | HT-29 > 100 µM | CAKI-1 > 100 µM | NCI-H226 > 100 µM | SK-OV-3 > 100 µM | KM12 > 100 µM | HOP-92 > 100 µM | SF-539 > 100 µM | UACC-257 > 100 µM | Malme-3M > 100 µM | SNB-19 > 100 µM | 786-0 > 100 µM | U-251 > 100 µM

COC(=O)C(C/C=C(\C)c1ccccc1)C(C)=O (centres undefined)
inactive: SK-MEL-5 59.6 µM | SN12C > 100 µM | A549 53.1 µM | HL-60 21.4 µM | CCRF-CEM 40.9 µM | SK-MEL-28 > 100 µM | HT-29 83.9 µM | NCI-H226 > 72.6 µM | SK-OV-3 > 100 µM | KM12 58.2 µM | HOP-92 17.1 µM | SF-539 > 100 µM | UACC-257 > 48.3 µM | Malme-3M > 100 µM | SNB-19 > 100 µM | U-251 57.5 µM
